Data on two molecules can be found in paper PMC5909127, “Optimization of a “bump-and-hole” approach to allele-selective BET bromodomain inhibition” (Chemical Science, 2018).

One data set deals with BRD2 BD1 WT (Homo sapiens, UniProt P25440). Put plainly: ITC. It is filed as binding.
Data set [1] can be described thus: in vitro. The settings on record: BALB/c, mouse, plasma, pH 7.4.
Data set [2] deals with T1, BRD3 BD2 WT (Homo sapiens, UniProt Q15059). Put plainly: ITC. Type of data set: binding.
In another data set the target is BRDT BD2 L/V (Homo sapiens, UniProt Q58F21, L306V). Description: competitive AlphaLISA. It is filed as binding. Particulars: read-out: AlphaLISA pIC50 Value BRDT BD2 L/V (converted). A general note: In Alpha technology, singlet oxygen from a donor bead excites a nearby acceptor bead.
The target in data set [3] is T2, BRD2 BD1 L/V (Homo sapiens, UniProt P25440, L110V). Put plainly: ITC. The settings on record: ITC. Type of data set: binding.
Data set [4] is described as follows: in vitro. The settings on record: PAMPA, pH 7.4. (PAMPA measures passive passage across an artificial lipid membrane.)
In data set [5] the target is T2, BRD2 BD1 L/V. Description: competitive AlphaLISA. It is filed as binding. Particulars: read-out: AlphaLISA pIC50 Value BRD2 BD1 L/V (converted).
A further data set addresses BRDT BD2 WT (Homo sapiens, UniProt Q58F21). Description: competitive AlphaLISA. Type of data set: binding. The settings on record: read-out: AlphaLISA pIC50 Value BRDT BD2 WT (converted).
Data set [6] deals with T3, BRD3 BD1 L/V (Homo sapiens, UniProt Q15059, L70V). Put plainly: ITC. It is filed as binding. Particulars: ITC.
In data set [7] the target is T4, BRD3 BD1 WT (Homo sapiens, UniProt Q15059). Put plainly: competitive AlphaLISA. It is filed as binding. Particulars: read-out: AlphaLISA pIC50 Value BRD3 BD1 WT (converted).
Data set [8] has as its target T5, BRD3 BD2 L/V (Homo sapiens, UniProt Q15059, L345V). Description: competitive AlphaLISA. Type of data set: binding. Particulars: read-out: AlphaLISA pIC50 Value BRD3 BD2 L/V (converted).
For data set [9], the target named is T5, BRD3 BD2 L/V. Description: ITC. It is filed as binding. The settings on record: ITC.
Another data set addresses BRD2 BD2 L/V (Homo sapiens, UniProt P25440, L383V). Put plainly: ITC. It is filed as binding. Particulars: ITC.
Data set [10] has as its target T4, BRD3 BD1 WT. Description: ITC. It is filed as binding.
In data set [11] the target is T3, BRD3 BD1 L/V. Put plainly: competitive AlphaLISA. Type of data set: binding. Particulars: read-out: AlphaLISA pIC50 Value BRD3 BD1 L/V (converted).
The subject of data set [12] is L/V somatic BET bromodomains. Put plainly: ITC. Particulars: L/V minus WT.
Data set [13] addresses WT somatic BET bromodomains. Description: ITC. The settings on record: mean and SD of all somatic bromodomains.
Data set [14] concerns the target T6, BRD2 BD2 WT (Homo sapiens, UniProt P25440). Put plainly: ITC. It is filed as binding.
The target in data set [15] is WT BET bromodomains (BD1 and BD2 of BRD2, BRD3 and BRD4). Description: competitive AlphaLISA (Bio-JQ1 displacement). Type of data set: binding, human. Particulars: mean and SD of all somatic bromodomains; active enantiomer concentration.
Data set [16] concerns the target T6, BRD2 BD2 WT. Description: competitive AlphaLISA. It is filed as binding. The settings on record: read-out: AlphaLISA pIC50 Value BRD2 BD2 WT (converted).
Data set [17] addresses T1, BRD3 BD2 WT. Put plainly: competitive AlphaLISA. It is filed as binding. Particulars: read-out: AlphaLISA pIC50 Value BRD3 BD2 WT (converted).
Data set [18] has as its system L/V BET bromodomains (BD1 and BD2 of BRD2, BRD3 and BRD4). Description: competitive AlphaLISA (Bio-JQ1 displacement). Particulars: L/V minus WT. Type of data set: binding, human.
Data set [19] concerns GFP-BRD4 L/V constructs with NF-κB-RE/luc2P reporter in HEK293T cells. Description: NF-κB luciferase assay. The settings on record: 1 µM, inhibiting either individual BD of BRD4. It is filed as cell-based, human. How it is done:
To provide additional functional insights into the individual roles of BD1 vs. BD2 beyond chromatin binding, a luciferase assay was developed to monitor the expression of NF-κB target genes, inspired by work of Zou et al.[45] […] This luciferase induction was maintained with L/V mutations (but not L/A), consistent again with more WT-like functionality of L/V compared to L/A (Fig. 9A).
12 – NF-κB Luciferase Assay
Luciferase experiments were performed in human HEK293T cells seeded in a 24-well plate at 100 000 cells in […]
pBABE NF-κB-RE/luc2P reporter plasmid. Cells were transfected using Lipofectamine™ LTX (Invitrogen) with PLUS™ reagent, with each well receiving 0.5 µg of each plasmid, 2.5 µl LTX and 0.5 µl PLUS reagent. The next day cells were treated with compounds, giving a final concentration of 1 µM compound and 0.01% DMSO. 6 hours later cells were washed with PBS, lysed with passive lysis buffer (Promega) and stored at -20°C.
Luciferase activity was measured suing the Promega luciferase assay. In a black 384-well plate 3µl of clarified lysate was mixed with 15µl luciferase assay reagent and after 15 minutes luminescence was measured in a Pherastar FS. […]
NMR spectra were recorded on a Bruker 500 Ultrashield or a Bruker Ascend 400. […] High Resolution Mass Spectra (HRMS) were recorded on a Bruker micrOTOF. […]

In data set [20] the target is T7, BRD4 BD1 WT (Homo sapiens, UniProt O60885). Put plainly: ITC. It is filed as binding.
Data set [21] deals with T7, BRD4 BD1 WT. Description: competitive AlphaLISA. Type of data set: binding. Particulars: pIC50 BRD4 BD1 WT, separated enantiomers test; total compound concentration.
In data set [22] the target is T8, BRD4 BD1 L/V (Homo sapiens, UniProt O60885, L94V). Description: competitive AlphaLISA. It is filed as binding. Particulars: total compound concentration.
Data set [23] addresses T8, BRD4 BD1 L/V. Description: ITC. Type of data set: binding. The settings on record: total compound concentration.

BRD2 BD1 WT, sequence (P25440 71-176): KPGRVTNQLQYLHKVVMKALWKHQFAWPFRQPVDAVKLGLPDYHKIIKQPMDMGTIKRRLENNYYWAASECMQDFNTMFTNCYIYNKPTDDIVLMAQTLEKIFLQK
T3 sequence (Q15059 24-144 L70V limits assumed): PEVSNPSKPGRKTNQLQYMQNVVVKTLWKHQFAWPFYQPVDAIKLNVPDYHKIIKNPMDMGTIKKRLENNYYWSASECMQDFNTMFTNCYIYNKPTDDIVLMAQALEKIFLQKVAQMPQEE
T4 sequence (Q15059 24-144): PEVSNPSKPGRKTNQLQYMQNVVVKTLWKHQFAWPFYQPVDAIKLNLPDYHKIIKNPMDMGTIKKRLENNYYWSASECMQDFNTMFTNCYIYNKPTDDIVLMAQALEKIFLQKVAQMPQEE
T2 sequence (P25440 71-176 L110V limits assumed): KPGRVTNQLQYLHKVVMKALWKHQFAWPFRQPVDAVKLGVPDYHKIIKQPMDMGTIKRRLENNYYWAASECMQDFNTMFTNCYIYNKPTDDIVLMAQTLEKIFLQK
T6 sequence (P25440 344-455): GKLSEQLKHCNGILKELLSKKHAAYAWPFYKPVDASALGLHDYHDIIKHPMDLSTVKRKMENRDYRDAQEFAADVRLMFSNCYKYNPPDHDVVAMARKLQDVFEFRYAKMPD
T5 sequence (Q15059 306-416 L345V limits assumed): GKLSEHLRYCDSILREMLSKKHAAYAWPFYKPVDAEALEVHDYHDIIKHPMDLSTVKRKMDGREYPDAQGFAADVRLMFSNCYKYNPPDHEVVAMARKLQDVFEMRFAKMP
T1 sequence (Q15059 306-416): as the sequence (Q15059 306-416 L345V limits assumed) above, with V40L counted along it
BRD2 BD2 L/V, sequence (P25440 344-455 L383V): as the sequence (P25440 344-455) above, with L40V counted along it

Turning to `CCNC(=O)[C@H](C)[C@@H]1N=C(c2ccc(Cl)cc2)c2cc(OC)ccc2-n2c(C)nnc21` (relative stereo) [Compound 16], the “ΔH BRD2 BD1 WT” value at BRD2 BD1 WT (ITC) is -4.5 kcal/mol. For the same molecule, the “N BRD2 BD1 WT” value on BRD2 BD1 WT (ITC stoichiometry) is recorded as 0.94. Also, the Kd on BRD2 BD1 WT (ITC, 30°C, read-out: Kd BRD2 BD1 WT) turned out to be 2200 nM; on BRD3 BD2 WT [2] (ITC, 30°C, read-out: Kd BRD3 BD2 WT), 1500 nM; on BRD2 BD1 L/V [3] (30°C, read-out: Kd BRD2 BD1 L/V) it was 120 nM; on BRD3 BD1 L/V [6] (30°C, read-out: Kd BRD3 BD1 L/V), 60 nM; on BRD3 BD2 L/V [9] (30°C, read-out: Kd BRD3 BD2 L/V), 130 nM; at BRD2 BD2 L/V (30°C, read-out: Kd BRD2 BD2 L/V), 190 nM. For the same molecule, the Kd at BRD3 BD1 WT [10] (ITC, 30°C, read-out: Kd BRD3 BD1 WT) is 1600 nM; at BRD2 BD2 WT [14] (ITC, 30°C, read-out: Kd BRD2 BD2 WT) it was 2400 nM. Besides, the half-life – broadly, the time in which the quantity being followed falls by half – at 50 µM in “in vitro [1]” is greater than 3 h. Also, the “ΔH BRD3 BD2 WT” value on BRD3 BD2 WT [2] (ITC) is listed as -6.0 kcal/mol. For the same molecule, the “N BRD3 BD2 WT” value at BRD3 BD2 WT [2] (ITC stoichiometry) is 0.88. Further, the IC50 at BRDT BD2 L/V is 398 nM; at BRD2 BD1 L/V [5] it was 398 nM; at BRDT BD2 WT it was 7940 nM; on BRD3 BD1 WT [7] it was 2000 nM; at BRD3 BD2 L/V [8], 79.4 nM; on BRD3 BD1 L/V [11], 100 nM. Further, the IC50 was 5010 nM at BRD2 BD2 WT [16] and 3980 nM on BRD3 BD2 WT [17]. Moreover, the “ΔH BRD2 BD1 L/V” value at BRD2 BD1 L/V [3] is listed as -16.3 kcal/mol. For the same molecule, the Papp (commonly the rate of passage across a membrane or cell layer, normalised by area and donor concentration) in the data set “in vitro [4]” is 2.6 ×10⁻⁶ cm/s. In addition, the “ΔH BRD3 BD1 L/V” value at BRD3 BD1 L/V [6] was -19.0 kcal/mol. The “ΔH BRD3 BD2 L/V” value on BRD3 BD2 L/V [9] was -12.9 kcal/mol. In addition, the “ΔH BRD2 BD2 L/V” value on BRD2 BD2 L/V is -9.9 kcal/mol. Further, the “ΔH BRD3 BD1 WT” value at BRD3 BD1 WT [10] (ITC) is given as -8.8 kcal/mol. In addition, the “N BRD3 BD1 WT” value at BRD3 BD1 WT [10] (ITC stoichiometry) is 0.81. Further, the “ITC pKd ± SD Δ” value in data set [12] came to 1.3 ± 0.3. Moreover, in data set [13], the “ITC pKd ± SD WT” value was 5.6 ± 0.3. In addition, the “ΔH BRD2 BD2 WT” value at BRD2 BD2 WT [14] (ITC) is on record as -3.9 kcal/mol. Further, the “N BRD2 BD2 WT” value on BRD2 BD2 WT [14] (ITC stoichiometry) is 0.65. For the same molecule, the “AlphaLISA pIC50 ± SD WT” value in data set [15] is recorded as 5.3 ± 0.2. Further, the “AlphaLISA pIC50 ± SD Δ” value in [18] was 1.4 ± 0.2.
`CC[C@@H](C(=O)OC)[C@@H]1N=C(c2ccc(Cl)cc2)c2ccc(OC)cc2-n2c(C)nnc21` (relative stereo) [(2R,3S)-8]: the “effect on NF-κB signalling” value in data set [19] is on record as “strongly impacted on NF-κB signalling”. For the same molecule, the Kd at BRD4 BD1 WT [20] was greater than 60000 nM; on BRD4 BD1 L/V [23] (Kd BRD4 BD1 L/V, ITC of separated enantiomers and racemates) it was 440 ± 50 nM. The IC50 at BRD4 BD1 WT [21] is 79400 nM; on BRD4 BD1 L/V [22] (pIC50 BRD4 BD1 L/V, separated enantiomers test), 1260 nM. Moreover, the “ΔpIC50 BRD4 BD1” value on BRD4 BD1 L/V [22] (L/V minus WT) stood at 1.8. Further, on BRD4 BD1 L/V [23] (ITC stoichiometry), the “N BRD4 BD1 L/V” value is listed as 0.85 ±0.01. In addition, the “ΔH BRD4 BD1 L/V” value on BRD4 BD1 L/V [23] (ITC) was -6.5 ± 0.1 kcal/mol.
